Data taken from patent US10851073B2, “Protein tyrosine phosphatase inhibitors and methods of use thereof” (Calico Life Sciences LLC, priority 2019, dated 2020).

Experiments:
[1] = target: T1, His tagged PTPN2 (TC45) protein (Homo sapiens, UniProt P17706); test: Mobility shift assay used to determine potency of PTPN2 inhibitors; type: biochemical; conditions: enzyme 0.5 nM, substrate 2 μM; read-out: PTPN2 MSA IC50
T1 construct: made in house
T1 sequence (P17706 with tags, fused parts or gaps isoform P17706-2): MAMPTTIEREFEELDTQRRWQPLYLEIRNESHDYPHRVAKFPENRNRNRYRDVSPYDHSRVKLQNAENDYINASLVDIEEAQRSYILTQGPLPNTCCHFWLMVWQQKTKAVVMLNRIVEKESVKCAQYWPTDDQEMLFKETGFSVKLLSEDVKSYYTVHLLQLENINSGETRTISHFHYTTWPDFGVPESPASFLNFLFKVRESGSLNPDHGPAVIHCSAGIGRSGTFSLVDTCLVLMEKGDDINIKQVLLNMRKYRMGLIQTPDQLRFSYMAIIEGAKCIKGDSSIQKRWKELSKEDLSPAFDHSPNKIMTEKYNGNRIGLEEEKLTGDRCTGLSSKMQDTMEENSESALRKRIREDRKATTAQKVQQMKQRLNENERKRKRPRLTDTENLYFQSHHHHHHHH
Description: Example 227: Mobility Shift Assay Used to Determine Potency of PTPN2 Inhibitors
Compound activity was determined using in house His tagged PTPN2 (TC45) protein (SEQ ID NO: 1) in an in vitro enzymatic reaction. The enzymatic assay used to determine activity was a mobility shift assay using a LabChip EZ Reader by Caliper Life Sciences. The enzymatic reaction was carried out in assay buffer (50 mM HEPES pH 7.5, 1 mM EGTA, 10 mM EDTA, 0.01% Tween® 20, and 2 mM DTT). The compounds were dispensed on a white 384 well ProxiPlate™ (PerkinElmer Catalog #6008289) plate using the Labcyte Echo at varying concentrations (12 point, 1:3 dilution). The enzyme (at 0.5 nM) was incubated with compound for 10 minutes at room temperature. Then the substrate (phosphorylated insulin receptor probe sequence: ((OG488)-(NH—CH2—CH2—O—CH2—CH2—O—CH2—CO)-T-R-D-I-(PY)-E-T-D-Y-Y-R-K-K-NH2) (SEQ ID NO: 2) was added at 2 μM to the plates and incubated for another 10 minutes at room temperature. Finally, a quench solution (water and 4-bromo-3-(2-oxo-2-propoxyethoxy)-5-(3-{[1-(phenylmethanesulfonyl)piperidin-4-yl]amino}phenyl)thiophene-2-carboxylic acid) was added to the plates, which were then run on the EZ Reader (excitation 488 nm, emission 530 nm) to measure % conversion (the amount of phosphorylated substrate which was de-phosphorylated by PTPN2). […] The % inhibition was then used to calculate the IC50 values.

[2] = target: T2, His tagged full-length PTPN1 protein (Homo sapiens, UniProt P18031); test: Mobility shift assay (MSA) used to determine potency of PTPN1 inhibitors; type: biochemical; conditions: enzyme 0.5 nM, substrate 2 μM
T2 construct: made in house
T2 sequence (P18031 with tags, fused parts or gaps): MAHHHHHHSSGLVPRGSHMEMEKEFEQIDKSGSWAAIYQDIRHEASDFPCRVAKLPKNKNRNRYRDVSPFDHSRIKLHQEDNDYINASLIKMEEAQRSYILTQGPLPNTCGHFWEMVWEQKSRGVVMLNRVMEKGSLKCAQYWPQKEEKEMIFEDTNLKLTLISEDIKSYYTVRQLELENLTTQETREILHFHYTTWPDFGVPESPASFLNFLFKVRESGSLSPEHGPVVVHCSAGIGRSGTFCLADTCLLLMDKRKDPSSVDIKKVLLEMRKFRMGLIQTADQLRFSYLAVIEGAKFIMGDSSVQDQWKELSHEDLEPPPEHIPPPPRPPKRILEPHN
Description: Example 228: Mobility Shift Assay (MSA) Used to Determine Potency of PTPN1 Inhibitors
Compound activity was determined using in house His tagged full-length PTPN1 protein (SEQ ID NO: 3) in an in vitro enzymatic reaction. The enzymatic assay used to determine activity is a mobility shift assay using a LabChip EZ Reader by Caliper Life Sciences. The enzymatic reaction was carried out in assay buffer (50 mM HEPES pH 7.5, 1 mM EGTA, 10 mM EDTA, 0.01% Tween® 20, and 2 mM DTT). The compounds were dispensed on a white 384 well ProxiPlate™ (PerkinElmer Cat^# 6008289) plate using a Labcyte Echo® liquid handler at varying concentrations (12 point, 1:3 dilution). The enzyme (at 0.5 nM) was incubated with compound for 10 minutes at room temperature. Then the substrate (phosphorylated insulin receptor probe sequence: ((OG488)-(NH—CH2—CH2—O—CH2—CH2—O—CH2—CO)-T-R-D-I-(PY)-E-T-D-Y-Y-R-K-K-NH2) (SEQ ID NO: 2) was added at 2 μM to the plates and incubated for another 10 minutes at room temperature. Finally, a quench solution (water and 4-bromo-3-(2-oxo-2-propoxyethoxy)-5-(3-{[1-(phenylmethanesulfonyl)piperidin-4-yl]amino}phenyl)thiophene-2-carboxylic acid) was added to the plates, which were then run on the EZ Reader (excitation 488 nm, emission 530 nm) to measure % conversion (the amount of phosphorylated substrate which was de-phosphorylated by PTPN1). […] The % inhibition was then used to calculate the IC50 values.

SMILES | IC50 [2] [µM] | IC50 [1] [µM]
CC(C)CC(=N)NC1CCc2cc(O)c(N3CC(=O)NS3(=O)=O)c(F)c2C1 (stereo not shown) [Compound 195, N-[8-fluoro-6-hydroxy-7-(1,1,4-trioxo-1λ^6,2,5-thiadiazolidin-2-yl)-1,2,3,4-tetrahydronaphthalen-2-yl]-3-methylbutanimidamide] | 0.01 to 0.1 | 0.01 to 0.1
CC(C)CCOC1CCc2cc(O)c(N3CC(=O)NS3(=O)=O)c(F)c2C1 (stereo not shown) [Compound 100, 5-[1-fluoro-3-hydroxy-7-(3-methylbutoxy)-5,6,7,8-tetrahydronaphthalen-2-yl]-1λ^6,2,5-thiadiazolidine-1,1,3-trione] | 0.001 to 0.01 | 0.01 to 0.1
O=C1CN(c2c(O)cc3c(c2F)CC(NCCn2cccn2)CC3)S(=O)(=O)N1 (stereo not shown) [Compound 141, 5-(1-fluoro-3-hydroxy-7-{[2-(1H-pyrazol-1-yl)ethyl]amino}-5,6,7,8-tetrahydronaphthalen-2-yl)-1λ^6,2,5-thiadiazolidine-1,1,3-trione] | 0.01 to 0.1 | 0.001 to 0.01
O=C1CN(c2c(O)cc3c(c2F)CN(CC2CCCN2)CC3)S(=O)(=O)N1 (stereo not shown) [Compound 183, 5-{8-fluoro-6-hydroxy-2-[(pyrrolidin-2-yl)methyl]-1,2,3,4-tetrahydroisoquinolin-7-yl}-1λ^6,2,5-thiadiazolidine-1,1,3-trione] | > 0.1 | > 0.1
CC(C)[C@@H]1CN(C2CCc3cc(O)c(N4CC(=O)NS4(=O)=O)c(F)c3C2)CCO1 (stereo partly drawn) [Compound 182, 5-{1-fluoro-3-hydroxy-7-[(2R)-2-(propan-2-yl)morpholin-4-yl]-5,6,7,8-tetrahydronaphthalen-2-yl}-1λ^6,2,5-thiadiazolidine-1,1,3-trione] | 0.01 to 0.1 | 0.01 to 0.1
CC(O)CCOC(=O)N1CCc2cc(O)c(N3CC(=O)NS3(=O)=O)c(F)c2C1 (stereo not shown) [Compound 171, 3-hydroxybutyl 8-fluoro-6-hydroxy-7-(1,1,4-trioxo-1λ^6,2,5-thiadiazolidin-2-yl)-3,4-dihydroisoquinoline-2(1H)-carboxylate] | 0.001 to 0.01 | 0.001 to 0.01
O=C1CN(c2c(O)cc3c(c2F)CN(C[C@H]2C[C@@H]2c2ccncc2)CC3)S(=O)(=O)N1 (racemic) [Compound 248, 5-(8-fluoro-6-hydroxy-2-{[rac-(1R,2R)-2-(pyridin-4-yl)cyclopropyl]methyl}-1,2,3,4-tetrahydroisoquinolin-7-yl)-1λ^6,2,5-thiadiazolidine-1,1,3-trione] | 0.01 to 0.1 | 0.01 to 0.1
O=C1CN(c2c(O)cc3c(c2F)CC(CNCCCC2CC2)C3)S(=O)(=O)N1 (stereo not shown) [Compound 274, 5-(2-{[(3-cyclopropylpropyl)amino]methyl}-4-fluoro-6-hydroxy-2,3-dihydro-1H-inden-5-yl)-1λ^6,2,5-thiadiazolidine-1,1,3-trione] | 0.001 to 0.01 | 0.001 to 0.01
CC(C)CCN(CCc1ccccn1)C1CCc2cc(O)c(N3CC(=O)NS3(=O)=O)c(F)c2C1 (stereo not shown) [Compound 167, 5-(1-fluoro-3-hydroxy-7-{(3-methylbutyl)[2-(pyridin-2-yl)ethyl]amino}-5,6,7,8-tetrahydronaphthalen-2-yl)-1λ^6,2,5-thiadiazolidine-1,1,3-trione] | 0.01 to 0.1 | 0.001 to 0.01
CC(O)CCN1CCc2cc(O)c(N3CC(=O)NS3(=O)=O)c(F)c2C1 (stereo not shown) [Compound 242, 5-[8-fluoro-6-hydroxy-2-(3-hydroxybutyl)-1,2,3,4-tetrahydroisoquinolin-7-yl]-1λ^6,2,5-thiadiazolidine-1,1,3-trione] | 0.01 to 0.1 | 0.01 to 0.1
CC(O)CCOC(=O)N1Cc2c(cc(O)c(N3CC(=O)NS3(=O)=O)c2F)C(F)(F)C1 (stereo not shown) [Compound 304, 3-hydroxybutyl 4,4,8-trifluoro-6-hydroxy-7-(1,1,4-trioxo-1λ^6,2,5-thiadiazolidin-2-yl)-3,4-dihydroisoquinoline-2(1H)-carboxylate] | > 0.1 | > 0.1
O=C1CN(c2c(O)cc3c(c2F)CC(C2CCN(CC4CC4)C2)CC3)S(=O)(=O)N1 (mixture of isomers) [Compound 140, 5-{7-[1-(cyclopropylmethyl)pyrrolidin-3-yl]-1-fluoro-3-hydroxy-5,6,7,8-tetrahydronaphthalen-2-yl}-1λ^6,2,5-thiadiazolidine-1,1,3-trione] | 0.01 to 0.1 | 0.01 to 0.1

The next lines start with results.

IC50 [2] [µM] | SMILES | IC50 [1] [µM]
0.01 to 0.1 | CC(F)(F)CNC1CCc2cc(O)c(N3CC(=O)NS3(=O)=O)c(F)c2C1 (stereo not shown) [Compound 132, 5-{7-[(2,2-difluoropropyl)amino]-1-fluoro-3-hydroxy-5,6,7,8-tetrahydronaphthalen-2-yl}-1λ^6,2,5-thiadiazolidine-1,1,3-trione] | 0.01 to 0.1
0.01 to 0.1 | COCC(C)(C)CCNC1CCc2cc(O)c(N3CC(=O)NS3(=O)=O)c(F)c2C1 (stereo not shown) [Compound 121, 5-{1-fluoro-3-hydroxy-7-[(4-methoxy-3,3-dimethylbutyl)amino]-5,6,7,8-tetrahydronaphthalen-2-yl}-1λ^6,2,5-thiadiazolidine-1,1,3-trione] | 0.001 to 0.01
0.01 to 0.1 | O=C1CN(c2c(O)cc3c(c2F)C[C@@H](NCCCC(F)(F)F)CC3)S(=O)(=O)N1 (single isomer, unassigned) [Compound 147] | 0.01 to 0.1
> 0.1 | CC(C)(C)OC(=O)NCCOC1CCc2c(cc(O)c(N3CC(=O)NS3(=O)=O)c2F)C1 (stereo not shown) [Compound 316, tert-butyl (2-{[5-fluoro-7-hydroxy-6-(1,1,4-trioxo-1λ^6,2,5-thiadiazolidin-2-yl)-1,2,3,4-tetrahydronaphthalen-2-yl]oxy}ethyl)carbamate] | 0.01 to 0.1
0.01 to 0.1 | CC(C)(O)CCNC1CCc2c(cc(O)c(N3CC(=O)NS3(=O)=O)c2F)C1 (stereo not shown) [Compound 315, 5-{1-fluoro-3-hydroxy-6-[(3-hydroxy-3-methylbutyl)amino]-5,6,7,8-tetrahydronaphthalen-2-yl}-1λ^6,2,5-thiadiazolidine-1,1,3-trione] | 0.001 to 0.01
> 0.1 | COC1CCc2c(cc(O)c(N3CC(=O)NS3(=O)=O)c2F)C1 (stereo not shown) [Compound 317, 5-(1-fluoro-3-hydroxy-6-methoxy-5,6,7,8-tetrahydronaphthalen-2-yl)-1λ^6,2,5-thiadiazolidine-1,1,3-trione] | 0.01 to 0.1
0.01 to 0.1 | O=C1CN(c2c(O)cc3c(c2F)CC(NCCN2CCC2)CC3)S(=O)(=O)N1 (stereo not shown) [Compound 115, 5-(7-{[2-(azetidin-1-yl)ethyl]amino}-1-fluoro-3-hydroxy-5,6,7,8-tetrahydronaphthalen-2-yl)-1λ^6,2,5-thiadiazolidine-1,1,3-trione] | 0.01 to 0.1
0.01 to 0.1 | CC(C)CCNC1CCc2c(cc(O)c(N3CC(=O)NS3(=O)=O)c2F)C1 (stereo not shown) [Compound 313, 5-{1-fluoro-3-hydroxy-6-[(3-methylbutyl)amino]-5,6,7,8-tetrahydronaphthalen-2-yl}-1λ^6,2,5-thiadiazolidine-1,1,3-trione] | 0.001 to 0.01
